Experimental data as given in publication PMC7221826, “5-Oxo-hexahydroquinoline Derivatives and Their Tetrahydroquinoline Counterparts as Multidrug Resistance Reversal Agents” (Molecules, 2020).
“Also recorded” adds a separate entry of the source. Where two headings read alike, the source gives them in different places.

What was measured:
MCF-7 = assay: MTT cell viability assay, MCF-7; type: cell-based, human; conditions: Homo sapiens, MCF7, 72 h, read-out: IC50 (µM) in Cultured Cells MCF-7
Text: (§1) Cell lines used for cytotoxicity assays included MCF-7 (human breast adenocarcinoma), A549 (human lung adenocarcinoma), K562 (human chronic myelogenous leukemia) and HEK-293 (human embryonic kidney) cells and were obtained from the Iranian Biological Resource Center, Tehran, Iran. MES-SA-DX5 multidrug resistant human uterine sarcoma, over-expressing P-gp and their parental non-resistant MES-SA cell lines were purchased from Sigma-Aldrich (St. Louis, MO, USA). All cells, except for HEK-293, were cultured in RPMI 1640 supplemented with 10% FBS and 100 units/mL penicillin-streptomycin at 37 °C in humidified air containing 5% CO2. HEK-293 cells were maintained in DMEM-F12 medium containing L-glutamine 2 mM supplemented with FBS and penicillin-streptomycin. MES-SA-DX5 cells were maintained in media containing 100 nM doxorubicin in order to ensure that only drug-resistant cells continue to grow.
(§2) Cytotoxicity of the test compounds were evaluated by MTT assay. In this method, reduction of MTT, a yellow tetrazolium salt to the purple formazan, by cellular dehydrogenase enzymes is determined as an index of cell viability. Cancer cells were seeded into 96-well plates (3–5 × 10^3 cells/well) and incubated for 24 h at 37 °C. Afterwards, four different concentrations of synthesized derivatives were added in triplicate and the cells were incubated at 37 °C for another 72 h, after which the media was replaced with MTT solution at a concentration of 0.5 mg/mL was added for MTT assay. After another 4h, formazan crystals were dissolved in 200 μL DMSO for 90 min and absorbance was measured at a wavelength of 570 nm with background correction at 650 nm using a microplate reader (model 680, Bio-Rad, Hercules, CA, USA) and IC50 for each compound was calculated with CurveExpert version 1.34 for Windows.

P-gp = target: T1, P-gp (Homo sapiens, UniProt P08183); assay: MDR reversal assay: flow cytometric detection of Rhodamine123 efflux/accumulation in MES-SA-DX5 cells; type: cell-based; conditions: compounds at 5, 10 and 25 µM, 5 µM Rh123
T1 construct: MES-SA-DX5 is a resistant cell line, which overexpresses P-gp as a result of constant exposure to doxorubicin; host or cells: MES-SA-DX5 human uterine sarcoma cells
T1 sequence (P08183 whole entry): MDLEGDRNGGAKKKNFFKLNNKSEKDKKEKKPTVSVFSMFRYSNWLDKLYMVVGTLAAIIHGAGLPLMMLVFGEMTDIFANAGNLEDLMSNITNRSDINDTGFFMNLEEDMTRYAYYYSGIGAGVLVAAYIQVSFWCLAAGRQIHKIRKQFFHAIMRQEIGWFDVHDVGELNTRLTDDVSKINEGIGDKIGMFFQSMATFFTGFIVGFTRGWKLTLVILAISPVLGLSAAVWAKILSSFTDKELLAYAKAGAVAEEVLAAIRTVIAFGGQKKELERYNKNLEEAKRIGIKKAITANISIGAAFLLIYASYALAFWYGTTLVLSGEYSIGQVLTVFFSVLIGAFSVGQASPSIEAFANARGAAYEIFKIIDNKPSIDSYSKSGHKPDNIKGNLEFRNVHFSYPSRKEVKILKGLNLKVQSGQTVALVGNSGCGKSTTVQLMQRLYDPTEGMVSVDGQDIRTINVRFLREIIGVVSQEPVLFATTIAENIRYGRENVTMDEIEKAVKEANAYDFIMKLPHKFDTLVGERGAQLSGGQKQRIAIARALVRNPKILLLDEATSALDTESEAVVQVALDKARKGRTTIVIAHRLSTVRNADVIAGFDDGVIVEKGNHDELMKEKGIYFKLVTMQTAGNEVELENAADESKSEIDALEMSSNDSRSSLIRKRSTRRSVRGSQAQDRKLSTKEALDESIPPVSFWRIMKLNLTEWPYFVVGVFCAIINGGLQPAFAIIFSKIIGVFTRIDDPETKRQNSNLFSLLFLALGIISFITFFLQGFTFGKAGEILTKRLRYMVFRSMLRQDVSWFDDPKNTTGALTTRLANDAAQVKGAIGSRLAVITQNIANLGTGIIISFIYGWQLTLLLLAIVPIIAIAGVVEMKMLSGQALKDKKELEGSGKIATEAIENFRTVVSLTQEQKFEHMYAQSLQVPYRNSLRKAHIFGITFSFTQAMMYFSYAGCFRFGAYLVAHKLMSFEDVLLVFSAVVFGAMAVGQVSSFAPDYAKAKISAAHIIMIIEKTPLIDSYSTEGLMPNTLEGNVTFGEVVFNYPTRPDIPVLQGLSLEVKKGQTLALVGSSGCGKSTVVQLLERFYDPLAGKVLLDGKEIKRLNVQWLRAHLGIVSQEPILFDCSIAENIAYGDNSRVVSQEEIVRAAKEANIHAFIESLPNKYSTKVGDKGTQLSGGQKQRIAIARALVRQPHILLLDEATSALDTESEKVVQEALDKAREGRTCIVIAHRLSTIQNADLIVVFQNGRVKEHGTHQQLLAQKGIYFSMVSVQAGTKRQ
Protocol: Rhodamine 123 (Rh123) is a well-known substrate of P-gp and it is readily pumped out of the cells by this ABC transporter. The amount of retained Rh123 in the cells indicates the efflux function of the target transporter. Flow cytometric analysis was used for assessment of intracellular Rh123 as previously described.
Briefly, a suspension of the multidrug resistant uterine sarcoma MES-SA-DX5 cells at a density of 5 × 10^5 cells/mL in growth medium was prepared. Four-hundred microliters (400 µL) of the synthesized compounds with final concentration of 5, 10, and 25 µM were added to 500 µL of the cell suspension. Verapamil was also tested as a positive control. After an incubation of 20 min, 50 µL of Rh123 at a final concentration of 5 µM was added and incubated for further 30 min at 37 °C. The cells were then centrifuged and washed twice with ice-cold PBS, and then resuspended in PBS and kept on ice. Rh123 accumulated in cells was then quantified by a FACSCalibur flow cytometer (Becton Dickinson, San Jose, CA, USA) with excitation and emission wavelengths of 488 and 530 nm, respectively. Geometric means of fluorescence intensity values were determined using Flowing Software (http://flowingsoftware.btk.fi/).
Accumulation of Rhodamine123 (Rh123), caused by inhibition of P-gp-mediated efflux, was determined by flow cytometry in the multidrug resistant uterine sarcoma MES-SA-DX5 cell line. Verapamil was used as a positive control. MES-SA-DX5 is a resistant cell line, which overexpresses P-gp as a result of constant exposure to doxorubicin. Alterations in the amount of the fluorescent Rh123 retained inside the MES-SA-DX5 cells can be plausibly related to the inhibition of the activity of P-gp efflux pump in the cells (Figure 1). The ratio of the geometric mean value of cells treated with synthesized compounds to the geometric mean value of the control untreated cells are show in Figure 2.
Figure 2 MDR reversal assessed by flow cytometric detection of Rhodamine123 efflux in MES-SA-DX5 cells. Cells were suspended in RPMI 1640 and treated with verapamil (Ver, positive control) or synthesized derivatives. After incubation for 20 min, 5 μM Rh123 was added, the cells were incubated for another […] at 37 °C and then centrifuged and washed twice with ice-cold PBS and resuspended in PBS. The fluorescence caused by the presence of Rh123 in cells was measured using a flow cytometer with excitation and emission wavelengths of 488 nm and 530 nm, respectively. The values represent the mean ± S.E.M. of 3–5 experiments. * The difference between treated and controlled cells are statistically significant (p ˂ 0.05).

K562 = assay: MTT cell viability assay, K562; type: cell-based, human; conditions: Homo sapiens, K562, 72 h, read-out: IC50 (µM) in Cultured Cells K562
Text: as §1, §2

A-549 = assay: MTT cell viability assay, A-549; type: cell-based, human; conditions: Homo sapiens, A549, 72 h, read-out: IC50 (µM) in Cultured Cells A-549
Text: as §1, §2

MES-SA-DX5 = assay: MTT cell viability assay, MES-SA-DX5; type: cell-based, human; conditions: Homo sapiens, MES-SA/Dx5, 72 h, multidrug resistant, P-gp overexpressing, read-out: IC50 (µM) in Cultured Cells MES-SA-DX5
Text: as §1, §2

HEK-293 = assay: MTT cell viability assay, HEK-293; type: cell-based, human; conditions: non-cancerous, read-out: IC50 (µM) in Cultured Cells HEK-293
Text: as §1, §2

MES-SA = assay: MTT cell viability assay, MES-SA; type: cell-based, human; conditions: MTT; for IC50: Homo sapiens, MES-SA, 72 h, parental non-resistant, read-out: IC50 (µM) in Cultured Cells MES-SA
Text: as §1, §2

MES-SA-DX5 cells = assay: Cell cycle analysis by propidium iodide (PI)-RNase flow cytometry; type: cell-based, human; parameters: Sub G1: unit not given here; conditions: 24 h
Protocol: The analysis of cells in different phases of cell cycle and sub-G1 was performed using propidium iodide (PI)-RNase assay by flow cytometry. MES-SA-DX5 cells were seeded in 12-well plates (1 × 10^6 cells/well) and treated with different concentrations of synthesized compounds for 24 h. The cells were then collected, washed with PBS, and fixed with 70% ethanol overnight at –20 °C. After at least 24 h, fixed cells were washed with PBS and subsequently stained with a DNA staining solution containing PI 20 μg/mL and RNase 200 μg/mL at room temperature for 30 min in the dark. Twenty thousand cells of each sample were analyzed using a BD FACSCalibur flow cytometer (BD Biosciences, USA) and the amount of the cells in sub-G1, G0/G1, S, and G2/M phases were estimated using CellQuest (Becton Dickinson, San Jose, CA, USA) software.
Therefore, it could be concluded that these compounds cause cytotoxicity in drug resistant MES-SA-DX5 cells by induction of apoptosis in these cells.
Figure 3 Effect of synthesized derivatives on cell cycle alterations in MES-SA-DX5 drug resistant cells. The cells in different phases of cell cycle were monitored using propidium iodide (PI)-RNase assay by flow cytometry. MES-SA-DX5 cells were seeded in 12-well plates (1 × 10^6 cells/well) and treated with different concentrations of synthesized compounds for 24 h. The cells were then collected, washed with PBS and fixed with 70% ethanol overnight at –20 °C. After at least 24 h, fixed cells were washed with PBS and subsequently stained with a DNA staining solution containing PI 20 μg/mL and RNase 200 μg/mL at room temperature for 30 min in the dark. Twenty thousand cells of each sample were analyzed using a FACS Calibur flow cytometer (BD Biosciences, USA). Representative histograms of cells treated with synthesized compounds are shown. An increase in sub-G1 phase cells could be observed after treatment with A1, A2, B1, and B2 compounds.

## CC1=C(C(=O)Nc2csc(C)n2)C(c2ccc(Cl)cc2Cl)C2=C(CCCC2=O)N1 (stereo not drawn) [Compound A1, 4-(2,4-Dichlorophenyl)-2-methyl-N-(2-methylthiazol-4-yl)-5-oxo-1,4,5,6,7,8-hexahydroquinoline-3-carboxamide]
MCF-7
  IC50: 72.5 ± 11.9 µM
other
  melting point: 195 °C
P-gp
  P-gp inhibitory activity (Rh123 accumulation): significantly blocked P-gp efflux; also recorded: highest P-gp inhibitory activities
K562
  IC50: 15 ± 0.5 µM
A-549
  IC50: 48.8 ± 1.3 µM
MES-SA-DX5
  IC50: 40.1 ± 4.7 µM
HEK-293; Homo sapiens, HEK293, 72 h
  IC50: 28.6 ± 4.3 µM
MES-SA
  IC50: 64.1 ± 19.4 µM
MES-SA-DX5 cells; 10 µM
  G0/G1: 52.32 ± 1.8
  G2/M: 25.12 ± 1.7
  S: 21.85 ± 1.0
  Sub G1: 0.61 ± 0.2
MES-SA-DX5 cells; 25 µM
  G0/G1: 53.30 ± 0.9
  G2/M: 25.01 ± 0.7
  S: 20.96 ± 1.2
  Sub G1: 0.71 ± 0.2
MES-SA-DX5 cells; 100 µM
  S: 21.12 ± 1.6

## CC1=C(C(=O)Nc2csc(C)n2)C(c2ccc(Br)cc2)C2=C(CCCC2=O)N1 (stereo not drawn) [Compound A2, 4-(4-Bromophenyl)-2-methyl-N-(2-methylthiazol-4-yl)-5-oxo-1,4,5,6,7,8-hexahydroquinoline-3-carboxamide]
MCF-7
  IC50: 56.7 ± 3.6 µM
other
  melting point: 273 °C
P-gp
  P-gp inhibitory activity (Rh123 accumulation): significantly blocked P-gp efflux; also recorded: highest P-gp inhibitory activities
K562
  IC50: 31 ± 2.7 µM
A-549
  IC50: 87.1 ± 6.7 µM
MES-SA-DX5
  IC50: 31.5 ± 1.5 µM
HEK-293; 72 h
  IC50: 63.1 ± 7.4 µM
HEK-293; Homo sapiens, HEK293, 72 h
  IC50: > 50 µM
MES-SA
  IC50: > 100 µM
  effect against parental non-resistant MES-SA cells: did not show any effect
MES-SA-DX5 cells; 10 µM
  G0/G1: 56.45 ± 1.1
  G2/M: 23.45 ± 0.2
  S: 18.90 ± 0.2
  Sub G1: 1.21 ± 0.7
MES-SA-DX5 cells; 25 µM
  G0/G1: 59.47 ± 3.0
  G2/M: 20.23 ± 0.7
  S: 18.53 ± 1.7
  Sub G1: 1.71 ± 1.1
MES-SA-DX5 cells; 100 µM
  G0/G1: 50.57 ± 2.8
  G2/M: 18.37 ± 2.6
  S: 19.27 ± 0.3

## CC1=C(C(=O)Nc2csc(C)n2)C(c2ccc(Cl)cc2)C2=C(CCCC2=O)N1 (stereo not drawn) [Compound A5, 4-(4-Chlorophenyl)-2-methyl-N-(2-methylthiazol-4-yl)-5-oxo-1,4,5,6,7,8-hexahydroquinoline-3-carboxamide]
MCF-7
  IC50: 72.9 ± 12.3 µM
other
  melting point: 253 °C
K562
  IC50: 31.5 ± 3.3 µM
A-549
  IC50: 87.4 ± 1.5 µM
MES-SA-DX5
  IC50: 40.3 ± 3 µM
HEK-293; 72 h
  IC50: 71.1 ± 10.1 µM
HEK-293; Homo sapiens, HEK293, 72 h
  IC50: > 50 µM
MES-SA
  IC50: 69.5 ± 12.5 µM
MES-SA-DX5 cells; 10 µM
  G0/G1: 56.07 ± 0.3
  G2/M: 24.20 ± 1.2
  S: 19.03 ± 0.9
  Sub G1: 0.65 ± 0.2
MES-SA-DX5 cells; 25 µM
  G0/G1: 58.03 ± 0.7
  G2/M: 22.33 ± 0.5
  S: 18.90 ± 0.9
  Sub G1: 0.70 ± 0.3
MES-SA-DX5 cells; 100 µM
  G0/G1: 48.92 ± 1.4
  G2/M: 29.32 ± 1.2
  S: 18.58 ± 0.6
